Data on four molecules can be found in patent publication EP4786462A1, “PYRIDONE COMPOUNDS AND PREPARATION METHOD THEREFOR, AND APPLICATION” (Shenzhen Salubris Pharmaceuticals Co., Ltd., priority 2023, dated 2025).

The target in one series is T1, hERG channel (Homo sapiens, UniProt Q12809).
T1 construct: expressed in transfected cells
In words: Effect on hERG current in hERG-HEK293 cells (automated patch-clamp). The series is classed as cell-based. Particulars: 30 µM compound, peak tail current vs 0.3% DMSO.

A short description of series [1]: Pharmacokinetic experiment in rats (iv and PO administration). Particulars: male, rat, plasma, SD rats, 5 mg/kg; for AUC(0-t): read-out: AUC0-24h. The series is classed as in vivo. The text has this: Polyethylene glycol 400 (lot number R22040588, Shanghai Shaoyuan Reagent Co., Ltd.), DMSO (lot number 20200319, Guangdong Guanghua Sci-Tech Co., Ltd.), Sodium Chloride Physiological Solution (lot number 2011110727, Chenxin Pharmaceutical Co., Ltd.). LC-MS instrument (Thermo Fisher Ultimate 3000 UPLC, TSQ QUANTUM ULTRA triple quadrupole mass spectrometer, AB SCIEX 5500+ QTARP).
SD rats: Male, 180-250 g, purchased from Guangdong Vital River Laboratory Animal Technology Co., Ltd.
The test compound powder was accurately weighed and completely dissolved in DMSO. PEG-400 was added, vortexed and sonicated to mix, then sodium chloride physiological solution was added, vortexed and sonicated to mix to form a 0.5 mg/mL solution (DMSO:PEG-400:NS = 5:60:35, V/V/V). For oral gavage administration, the dose was 10 mL/kg; for intravenous administration, the dose was 2 mL/kg.
After intravenous or oral gavage administration to rats, venous blood (200 µL) was collected at 5 min (not collected for oral gavage administration), 15 min, 30 min, 1 h, 2 h, 5 h, 7 h, and 24 h into EDTA-K2-anticoagulated EP tubes. The samples were centrifuged at 10000 rpm for 2 min, and the plasma was collected and stored at -80 °C until analysis.
A certain amount of the test compound was accurately weighed and dissolved in DMSO to 2 mg/mL as a stock solution. An appropriate volume of the compound stock solution was accurately transferred and diluted with acetonitrile to prepare a series of standard solutions. 4 µL of each standard solution was accurately transferred, and 36 µL of blank plasma was added, vortexed to mix, to prepare plasma samples equivalent to plasma concentrations of 1, 3, 5, 10, 30, 100, 300, 1000, 3000 ng/mL. Each concentration was analyzed in duplicate to establish a standard curve. 30 µL of plasma was taken, and 200 µL of an acetonitrile solution containing internal standard propranolol (5 ng/mL) was added. After vortex mixing, the samples were centrifuged at 4000 rpm for 10 min, and the supernatant was taken for LC-MS analysis. The LC-MS detection conditions were as follows: Column: YMC-Triart C18, 50×2.1 mm, S-3µm, 12 nm.
Mobile phase A: water (0.1% formic acid), mobile phase B: acetonitrile, flow rate: 0.5 mL/min, gradient elution as shown in Table 2 below: Table 2
After detecting plasma concentrations by LC-MS, pharmacokinetic parameters in rats after administration were calculated using a non-compartmental model with WinNonlin 6.1 software. Table 3: Pharmacokinetic Parameters of the Compound of the Present Disclosure in Rats (iv and PO Administration)

A word on the half-life: it is the time needed for the level to fall by half in the phase considered. Low values mean rapid decline, high ones slow decline.

Bounds are passed on as bounds.

T1 sequence (Q12809 whole entry): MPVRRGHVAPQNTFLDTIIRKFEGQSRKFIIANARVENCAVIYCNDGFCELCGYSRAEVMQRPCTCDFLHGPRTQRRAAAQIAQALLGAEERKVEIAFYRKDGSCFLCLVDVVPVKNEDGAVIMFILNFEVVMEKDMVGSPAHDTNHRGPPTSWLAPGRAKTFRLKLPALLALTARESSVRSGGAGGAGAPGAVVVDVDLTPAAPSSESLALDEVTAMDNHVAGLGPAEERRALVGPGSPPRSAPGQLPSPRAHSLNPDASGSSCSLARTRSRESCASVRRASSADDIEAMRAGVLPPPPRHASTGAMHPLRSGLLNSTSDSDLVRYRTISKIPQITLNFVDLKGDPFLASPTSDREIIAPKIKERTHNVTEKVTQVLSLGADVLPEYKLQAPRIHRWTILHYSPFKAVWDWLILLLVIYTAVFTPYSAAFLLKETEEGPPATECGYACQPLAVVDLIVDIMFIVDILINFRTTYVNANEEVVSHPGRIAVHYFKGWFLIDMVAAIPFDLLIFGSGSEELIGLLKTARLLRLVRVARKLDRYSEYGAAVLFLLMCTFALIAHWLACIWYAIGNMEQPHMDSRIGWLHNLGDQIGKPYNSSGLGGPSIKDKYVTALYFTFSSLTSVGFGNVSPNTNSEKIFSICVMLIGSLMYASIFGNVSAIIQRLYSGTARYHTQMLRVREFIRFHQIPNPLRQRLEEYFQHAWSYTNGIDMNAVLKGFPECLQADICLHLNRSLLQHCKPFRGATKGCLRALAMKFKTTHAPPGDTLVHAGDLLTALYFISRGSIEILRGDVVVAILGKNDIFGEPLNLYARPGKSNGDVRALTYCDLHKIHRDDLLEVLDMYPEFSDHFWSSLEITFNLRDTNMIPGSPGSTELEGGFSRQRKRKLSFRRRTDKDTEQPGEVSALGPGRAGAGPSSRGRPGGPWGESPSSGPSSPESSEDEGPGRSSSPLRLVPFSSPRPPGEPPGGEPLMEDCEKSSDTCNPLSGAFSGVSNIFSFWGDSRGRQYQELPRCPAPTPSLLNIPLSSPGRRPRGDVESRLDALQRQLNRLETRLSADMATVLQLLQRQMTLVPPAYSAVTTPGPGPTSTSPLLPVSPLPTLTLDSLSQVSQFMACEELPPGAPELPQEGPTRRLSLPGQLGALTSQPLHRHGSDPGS

Consider `O=c1cccnn1-c1cnc(N[C@H]2CC[C@H](Nc3nc4ccccn4n3)C2)c(F)c1` [Example C47, 2-(6-(((1S,3S)-3-([1,2,4]triazolo[1,5-a]pyridin-2-ylamino)cyclopentyl)amino)-5-fluoropyridin-3-yl)pyridazin-3(2H)-one], for which the “hERG Inhibition (%)” value at hERG channel is given as under 50%. In series [1], the AUC(0-t) is 53000 ng·h/mL.

For the molecule `O=c1cccnn1-c1ccc(N[C@H]2CC[C@H](Nc3nc4cccnc4s3)C2)nc1` [Example C35], the “hERG Inhibition (%)” value on hERG channel was under 50%. Besides, in series [1], the AUC(0-t) was 39700 ng·h/mL.

Turning to `CC(O)c1cccn(-c2ccc(N[C@H]3CC[C@H](Nc4ncc(OC(F)F)cn4)C3)nc2)c1=O` (stereo partly drawn) [Example A35, 6'-(((1S,3S)-3-((5-(difluoromethoxy)pyrimidin-2-yl)amino)cyclopentyl)amino)-3-(1-hydroxyethyl)-2H-[1,3'-bipyridin]-2-one], the “30 uM-hERG Inhibition” value on hERG channel amounted to 33.81. For the same molecule, in series [1], the half-life is 14.9 h and the AUC(0-t) is 60100 ng·h/mL.

As to `O=c1ccccn1-c1cnc(N[C@H]2CC[C@H](Nc3nc4ccccn4n3)C2)c(F)c1` [Example C17, 6'-(((1S,3S)-3-([1,2,4]triazolo[1,5-a]pyridin-2-ylamino)cyclopentyl)amino)-5'-fluoro-2H-[1,3'-bipyridin]-2-one], the “hERG Inhibition (%)” value at hERG channel is reported as under 50%. Also, the AUC(0-t) in series [1] is 39800 ng·h/mL.
